From US20240216362A1, “BENZOTHIAZOLE AND QUINOLINE DERIVATIVES FOR USE IN TREATING KAWASAKI DISEASE” (Shanghai Yao Yuan Biotechnology Co., Ltd., priority 2021, published 2024) come the findings set out here.

Counter-ions that a name gives are not always drawn.

What is called inhibition is the relative decrease from the control value, in per cent. Read a high inhibition as a strong effect. A word on the IC50: it is the point on the concentration scale where inhibition reaches its midpoint.

The target of assay [1] is hALPK1-V1092A (transiently transfected HEK293 cells) (Homo sapiens (Human), UniProt Q96QP1, V1092A). Kind of assay: Inhibition of IL-8 secretion in cells expressing V1092A ALPK1 mutant. Type of assay: cell-based. The following applies: 24 hours, relative to wild-type HEK293 cells. As to the method:
(§1) HEK293 cells were cultured as described above prior to transient transfection with either empty vector or an expression vector encoding (i) human ALPK1 (hALPK1), (ii) hALPK1 with the T237M activating mutation (hALPK1-T237M) (iii) hALPK1 with the V1092A activating mutation (hALPK1-V1092A), or (iv) a kinase dead ALPK1 mutant (hALPK1-T237M-D1194S). Transfection was performed according to manufacturer's protocols (Lipofectamine™ 3000, ThermoFisher). Transfected cells were selected, seeded onto 96-well plates and treated with serial dilutions of the test compounds for 6.5 hr. Following treatment, cell viability was determined using a luminescent cell viability assay (Cell Counting-Lite Assay or “CCL Assay” from Vazyme Biotech Co., Ltd.) and cell free supernatants were collected and analyzed for IL-8 protein by IL-8 ELISA as described above. […] As shown in the figure, very little IL-8 was detectable in cells transfected with any of the empty vector, hALPK1, or the kinase dead hALPK1 mutant. In contrast, both of the activating mutations in hALPK1 induced significant IL-8 secretion.
For the V1092A mutant study shown in Table 4, HEK293 cells were transiently transfected with hALPK1-V1092A or hALPK1 (wildtype) expression vectors and then treated with test compounds for 24 hours. Fresh medium and compound were added at 18 hours. Cell viability and IL-8 secretion were determined 6 hours after the second addition of compound, using the CCL assay and IL-8 ELISA as described above.

Assay [2] addresses T237M hALPK1 mutant (HEK293 A2 cells) (Homo sapiens (Human), UniProt Q96QP1, T237M). Kind of assay: Inhibition of IL-8 secretion in cells expressing T237M ALPK1 mutant. The following applies: 40 hours, relative to wild-type HEK293 cells. Format: cell-based. As to the method:
as §1
Next, we tested a representative set of compounds for inhibition of IL-8 secretion in cells expressing each of the activating ALPK1 mutants. T237M and V1092A. […] For the T237M mutant study, we produced an HEK293 cell line (“A2”) stably expressing the T237M hALPK1 mutant. A2 cells were cultured in the presence of test compound (6 uM) for 40 hours total. Fresh medium and compound were added at 24 hours. Cell viability and IL-8 secretion were determined 16 hours after the second addition of compound, using the CCL assay and IL-8 ELISA as described above.

Assay [3] has as its system ALPK1-dependent innate immunity gene expression. The assay is described as follows: Inhibition of ALPK1 in coronary artery, aorta and heart muscle (innate immunity gene mRNA). Format: in vivo, Sprague-Dawley (SD) rats. The following applies: SD rats, 40 mpk oral, 2 h before ALPK1 agonist ip, tissue 3 h after agonist, compared with vehicle group. The source says: To examine if ALPK1 inhibitors can suppress innate immunity genes activated upon ALPK1 activation, SD rats were orally administered compound T007 and gene expression of innate immunity genes was activated by intraperitoneal administration of the ALPK1 agonist, D-glycero-D-manno-6-fluoro-heptose-1β-S-ADP. The coronary artery, aorta and heart muscle tissues were examined for inhibition of ALPK1 inhibitors on innate immunity gene expression.
Twenty male Sprague-Dawley (SD) rats were randomly divided into four groups. A first control group (“normal”) was administered vehicle (0.5% MC) orally, followed 2 hours later with PBS administered by intraperitoneal injection (ip). A second control group (“vehicle”) was administered vehicle (0.5% MC) orally, followed 2 hours later by ip administration of the ALPK1 agonist, D-glycero-D-manno-6-fluoro-heptosc-1β-S-ADP (50 ppk). Treatment groups were administered ALPK1 inhibitors (40 mpk) orally, followed 2 hours later by ip administration of the ALPK1 agonist. The coronary artery, cardiac muscle and aorta from each group were collected 3 hours after administration of the ALPK1 agonist. RNA was isolated and samples were analyzed by RT-PCR for expression of MCP-1 (CCL-2), CCL-7, CXCL-1, CXCL-11, CXCL-10, IL-1β, CCL-5, TNF-α, and IL-6 mRNA. Briefly, total RNA was extracted following the protocol of the Rneasy Mini Kit (QIAGEN, Germany). Messenger RNA was reverse transcribed to cDNA using HiScript Q RT SuperMix for qPCR Kit (Vazyme, Nanjing, China). Quantitative PCR was conducted using AceQ qPCR SYBR Green Master Mix Kit (Vazyme, Nanjing, China) on the QuantStudio 5 applied biosystems (Thermo scientific, USA). Relative mRNA levels were calculated using the 2−ΔΔCT method, and HPRT was used as a reference for gene expression normalization. Data were presented as the gene fold change against their respective expression in the control arm.

For assay [4], the system named is ALPK1-dependent gene expression in PBMC. The assay is described as follows: Inhibition of ALPK1 in PBMC cells (gene mRNA). Type of assay: in vivo, Sprague-Dawley (SD) rats. The following applies: SD rats, 10 mpk oral, 2 h before ALPK1 agonist ip, blood 3 h after agonist, compared with vehicle group. The source says:
We examined whether ALPK1 inhibitors can suppress ALPK1-dependent activation of a set of such genes in rats. Animals were orally administered compound T007 and ALPK1-dependent gene expression was induced by intraperitoneal administration of the ALPK1 agonist, D-glycero-D-manno-6-fluoro-heptose-lo-S-ADP. PBMCs were collected and gene expression analyzed, as described in more detail below.
Thirty-six male Sprague-Dawley (SD) rats were randomly divided into six groups. A first control group (“normal”) was administered vehicle (0.5% MC) orally, followed 2 hours later with PBS administered by intraperitoneal injection (ip). A second control group (“vehicle”) was administered vehicle (0.5% MC) orally, followed 2 hours later by ip administration of the ALPK1 agonist, D-glycero-D-manno-6-fluoro-heptose-1β-S-ADP (50 ppk). Treatment groups were administered ALPK1 inhibitors (10 mpk) orally, followed 2 hours later by ip administration of the ALPK1 agonist. […] RNA was isolated and samples were analyzed by RT-PCR for gene expression. […] Quantitative PCR was conducted using AceQ qPCR SYBR Green Master Mix Kit (Vazvme, Nanjing, China) on the QuantStudio 5 applied biosystems (Thermo scientific, USA). Relative mRNA levels were calculated using the 2−ΔΔCT method, and HPRT was used as a reference for gene expression normalization. […]

Assay [5] has as its system IL1β mRNA induced by ALPK1 activation in THP-1-derived macrophages. The assay is described as follows: PMA-differentiated THP-1 cell based assay (IL1β mRNA). The following applies: Homo sapiens; PMA-differentiated THP-1 cells, ALPK1 agonist stimulation 4 h; read-out: IC50 for inhibition of IL1β mRNA. On the procedure:
Peripheral blood mononuclear cells (PBMCs) from Kawasaki patients show activation of ALPK1-TIFA-IL10μ pathway. We evaluated the ability of ALPK1 inhibitors to suppress IL1β levels following ALPK1 activation in THP-1-derived macrophage cells in which the ALPK1-TIFA-IL1P pathway is activated by an ALPK1 agonist, D-glycero-D-manno-6-fluoro-heptose-1β-S-A DP.
THP-1 cells were cultured in RPMI 1640 containing 10% heat inactivated FBS, penicillin (100 units/ml) and streptomycin (100 μg/ml), and maintained in a humidified incubator with 95% atmospheric air and 5% CO2. Prior to the experiment, THP-1 cells were seeded into 24-well flat-bottom plate at a cell density of […]. Phorbol myristate acetate (PMA; 50 ng/ml) was used to treat THP-1 cells for 48 h, and then THP-1-derived macrophages were obtained. Following treatment THP-1 cells were pretreated with serially diluted compounds for 2 hours and then stimulated with D-glycero-D-manno-6-fluoro-heptose-1β-S-ADP for 4 h. […] The mRNA expression levels IL1β were detected by SYBR green gene expression assays. […] Relative expression was calculated by comparing to vehicle control and the values were plotted as fold induction. All activity results were expressed as the mean of triplicate determinations. IC50 was determined from dose response curve using Prism Software, version 6.00 from GraphPad Software.

The target of another assay is ALPK1 (Homo sapiens (Human), UniProt Q96QP1). The assay is described as follows: ALPK1 in vitro kinase assay (HTRF, TIFA phosphorylation). The following applies: ADP-Heptose activated ALPK1, TIFA substrate. Type of assay: biochemical. As to the method: ALPK1 kinase activity was measured in an in vitro assay using ADP-Heptose as the ALPK1 ligand and activator of its kinase activity and TIFA protein as the ALPK1 phosphorylation substrate. Since phosphorylated TIFA proteins oligomerize, Homogeneous Time-Resolved Fluorescence (HTRF) was used to measure protein:protein interaction between HA-tagged TIFA proteins as an indicator of TIFA phosphorylation.
Chain of ALPK1 (Q96QP1 whole entry): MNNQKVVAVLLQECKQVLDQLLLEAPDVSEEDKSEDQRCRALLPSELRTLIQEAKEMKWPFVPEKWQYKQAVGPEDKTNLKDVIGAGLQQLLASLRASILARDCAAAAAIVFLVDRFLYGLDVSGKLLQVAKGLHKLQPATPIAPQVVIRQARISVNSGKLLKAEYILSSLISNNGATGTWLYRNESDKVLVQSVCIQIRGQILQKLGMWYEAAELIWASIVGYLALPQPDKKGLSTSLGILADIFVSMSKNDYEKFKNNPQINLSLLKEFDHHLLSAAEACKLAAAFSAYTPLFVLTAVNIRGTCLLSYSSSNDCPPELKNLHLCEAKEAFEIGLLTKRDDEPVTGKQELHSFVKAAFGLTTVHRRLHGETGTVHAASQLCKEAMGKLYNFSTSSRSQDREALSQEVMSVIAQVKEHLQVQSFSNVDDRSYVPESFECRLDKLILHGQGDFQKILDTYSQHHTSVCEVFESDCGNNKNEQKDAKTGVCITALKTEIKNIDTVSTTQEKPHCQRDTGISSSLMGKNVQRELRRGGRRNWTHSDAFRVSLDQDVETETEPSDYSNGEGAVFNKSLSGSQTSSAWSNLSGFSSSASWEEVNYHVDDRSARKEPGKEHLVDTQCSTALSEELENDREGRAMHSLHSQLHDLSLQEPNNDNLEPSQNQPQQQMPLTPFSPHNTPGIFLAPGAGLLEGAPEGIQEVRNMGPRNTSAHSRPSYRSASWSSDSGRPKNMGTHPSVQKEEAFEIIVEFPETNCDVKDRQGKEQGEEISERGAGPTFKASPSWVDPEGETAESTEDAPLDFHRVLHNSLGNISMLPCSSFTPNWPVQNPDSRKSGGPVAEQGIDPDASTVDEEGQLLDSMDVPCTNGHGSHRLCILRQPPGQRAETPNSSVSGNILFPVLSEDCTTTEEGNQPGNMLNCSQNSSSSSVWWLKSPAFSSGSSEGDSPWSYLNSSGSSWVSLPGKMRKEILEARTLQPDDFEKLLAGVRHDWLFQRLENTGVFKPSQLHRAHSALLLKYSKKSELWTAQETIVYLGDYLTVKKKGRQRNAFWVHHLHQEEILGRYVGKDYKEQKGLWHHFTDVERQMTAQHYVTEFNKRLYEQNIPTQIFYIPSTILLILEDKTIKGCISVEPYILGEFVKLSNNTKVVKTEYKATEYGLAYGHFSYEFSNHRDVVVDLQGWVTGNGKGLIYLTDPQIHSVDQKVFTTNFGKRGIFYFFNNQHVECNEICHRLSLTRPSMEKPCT
In brief, dose-response studies were performed with HEK293 cells cultured in Dulbecco's Modified Eagle Medium (DMEM) supplemented 10% fetal bovine serum (FBS, Hyclone™) containing antibiotics (pen/strep, G418) in 384-well assay plates. Each well contained 0.1 mg TIFA, ALPK1 (2 nM final concentration in reaction mixture) and kinase buffer (100 mM of HEPES pH 7.4, 4 mM DTT, 40 mM MgCl2, 20 mM of β-Glycerol phosphate disodium salt, 0.4 mM of Na3VO4, 0.16 mg/mL). […]
For HTRF, samples were incubated with a Tb cryptate-labeled anti-HA antibody for capturing HA-tagged proteins according to the manufacturer's instructions (PerkinElmer™, CisBio™) and the fluorescence signal was quantified (Tecan Infinite F NANO+). HTRF signals were calculated as the HTRF ratio (ratio of fluorescence measured at 665 nm and 620 nm)×104 (thereby using the signal at 620 nm as an internal standard).
IC50 values were determined using 3- or 4-parameter logistic equation using GraphPad Prism version 6.00. […]

Chain of hALPK1-V1092A (transiently transfected HEK293 cells) (Q96QP1 whole entry V1092A): as the sequence (Q96QP1 whole entry) above, with V1092A counted along it
Chain of T237M hALPK1 mutant (HEK293 A2 cells) (Q96QP1 whole entry T237M): as the sequence (Q96QP1 whole entry) above, with T237M counted along it

Regarding `COc1cccc2ccc(NC(=O)c3c(F)cc(N4CCNCC4)cc3F)nc12` [Compound Q001, 2,6-difluoro-N-(8-methoxyquinolin-2-yl)-4-(piperazin-1-yl)benzamide], the inhibition at 6 µM was determined as 68% in assay [1] and 69% in assay [2].

`COc1cccc2ccc(NC(=O)c3c(F)ccc(N4CCNCC4)c3F)nc12` [Compound Q005, 2,6-difluoro-N-(8-methoxyquinolin-2-yl)-3-(piperazin-1-yl)benzamide]: in assay [1], the inhibition at 6 µM came to 52%.

Take `C#Cc1cccc2sc(NC(=O)c3c(F)cc(N4CCNCC4)cc3F)nc12` [Compound T007, N-(4-ethynylbenzo[d]thiazol-2-yl)-2,6-difluoro-4-(piperazin-1-yl)benzamide]: in assay [3], the “mRNA expression of aorta IL-6, CXCL-1, CXCL-10, CCL-2” value is recorded as “significantly decreased”; the “mRNA expression of cardiac muscle TNF-α, IL-1b, IL-6, CXCL-1, CXCL-10, CXCL-11, CCL-2 and CCL-5” value is “significantly decreased”; the “mRNA expression of coronary artery TNF-α, CXCL-1, CCL-2 and CCL-7” value is “significantly decreased”. Besides, the “mRNA expression of PBMC CXCL-1” value in assay [4] was “significantly decreased”. Also, the inhibition at 6 µM in assay [1] stood at 95%. Moreover, in assay [2], testing at 6 µM gave an inhibition of 91%. Further, in assay [5], the IC50 worked out at 0.021 µM.

In assay [1], `COc1cccc2sc(NC(=O)c3c(F)cc(N4CCNCC4)cc3F)nc12` [Compound T017, 2,6-difluoro-N-(4-methoxybenzo[d]thiazol-2-yl)-4-(piperazin-1-yl)benzamide hydrochloride] had an inhibition at 6 µM of 50%.

In turn, `O=C(Nc1nc2c(F)cc(F)cc2s1)c1c(F)cc(N2CCNCC2)cc1F` [Compound T035, N-(4,6-difluorobenzo[d]thiazol-2-yl)-2,6-difluoro-4-(piperazin-1-yl)benzamide] displayed an IC50 against ALPK1 of 1.34 µM.

As to `C#Cc1cccc2sc(NC(=O)c3c(Cl)cc(N4CCNCC4)cc3Cl)nc12` [Compound T048, 2,6-dichloro-N-(4-ethynylbenzo[d]thiazol-2-yl)-4-(piperazin-1-yl)benzamide], the inhibition at 6 µM in assay [2] was found to be 66%.

In turn, `C#Cc1cccc2sc(NC(=O)c3c(C)cc(N4CCNCC4)cc3F)nc12` [Compound T050, N-(4-ethynylbenzo[d]thiazol-2-yl)-2-fluoro-6-methyl-4-(piperazin-1-yl)benzamide] gave an IC50 at ALPK1 of 0.015 µM.
